Laboratory results taken from PubChem BioAssay AID1845212 (Molecular Pharmacology Branch, DTP, NCI, 2023).

Tested on: NCI-H719 tumor spheroids, viability
Test: Anticancer human tumor NCI-H719 cell line growth inhibition;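 further: spheroids exposed to compounds for seven days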;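 on viability, T/C: percent viability relative to DMSO vehicle control as 100%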
Details: spheroids with HUVEC and MSC; for IC50: curve of first compound; for viability, T/C: stronger effect = lower value; active means viability on the fitted dose curve at most 10% of control; inactive means the rest
Text: Multicellular complex tumor spheroid response to DNA repair inhibitors in combination with DNA-damaging drugs
This study explores the anticancer activities of DNA-damaging drugs and inhibitors of DNA damage repair, both as single agents and in combinations. Complex tumor spheroids comprised of malignant cells, endothelial cells and mesenchymal stem cells served as an in vitro model for human solid tumors. This model system incorporates physiologically relevant features and patient-derived or established malignant cell lines with clinically relevant genetic alterations from many tumor types. Twenty-six patient-derived or established malignant cell lines were evaluated representing sarcoma, melanoma, small cell lung cancer (SCLC), non-small cell lung cancer (NSCLC), as well as bladder, ovarian and pancreatic cancers. The concentration ranges selected for each drug and investigational agent were based upon clinically achievable concentrations if the clinical Cmax of the agent was known.
Compounds. The drugs and compounds olaparib (NSC753686), talazoparib (NSC767125), berzosertib (NSC777718), elimusertib (NSC800525), nedisertib (NSC802822), VX-984 (NSC792969), AZD-1390 (NSC803789), temozolomide (NSC362856), topotecan (NSC609699), trabectedin (NSC813783), staurosporine (NSC755774), and gemcitabine (NSC613327) were obtained from the National Cancer Institute (NCI) Developmental Therapeutics Program Chemical Repository. The FDA-approved anticancer drug set is available from the Developmental Therapeutics Program at https://dtp.cancer.gov/organization/dscb/obtaining/available_plates.htm. […] The stock solutions were prepared in dimethyl sulfoxide (DMSO, Sigma-Aldrich, St. Louis, MO, cat. D2650) at 400-fold the tested concentration and stored at -70 degrees C. Prior to their use, the stock solutions were diluted in fresh medium and the final DMSO concentration in the assay was 0.25% (v/v). All drugs and investigational agents were tested over a range starting from a high concentration at or near the clinical Cmax and decreasing in half-log increments. If the clinical Cmax for an agent had not been determined, the highest concentration tested was 10 microM.
Cell Lines. The patient-derived cancer cell (PDC) lines: 156681-154-R-J1-PDC, 283228-195-R-J1-PDC, 287954-098-R-J1-PDC, 292921-168-R-J2-PDC, 349418-098-R-PDC, 425362-245-T-J1-PDC, 556581-035-R-J1-PDC, and BL0293-F563-PDC were received from the NCI Patient-Derived Models Repository (PDMR, https://pdmr.cancer.gov). The established cell lines HS-SY-2 (RRID:CVCL_8719), MPNST, and SYO-1 (RRID:CVCL_7146) were obtained from the Sloan Kettering Institute. The alveolar soft parts sarcoma cell line ASPS-1 (RRID:CVCL_S738) was established at the NCI and grown from internal seed stocks. The following established cell lines were purchased from the American Type Culture Collection (ATCC, Manassas, VA): G-401 (ATCC, cat. CRL-1441, RRID:CVCL_0270), SW982 (ATCC, cat. HTB-93, RRID:CVCL_1734), VA-ES-BJ (ATCC, cat. CRL-2138, RRID:CVCL_1785), NCI-H719 (ATCC, cat. CRL-5837, RRID:CVCL_1582), NCI-H196 (ATCC, cat. CRL-5823, RRID:CVCL_1509), NCI-H841 (ATCC, cat. CRL-5845, RRID:CVCL_1595), NCI-H1618 (ATCC, cat. CRL-5879, RRID:CVCL_1480), NCI-H1876 (ATCC, cat. CRL-5902, RRID:CVCL_1503), DMS 114 (ATCC, cat. CRL-2066; RRID:CVCL_1174), NCI-H211 (ATCC, cat. CRL-5824; RRID:CVCL_1529), and SW 1271 (ATCC, cat. CRL-2177, RRID:CVCL_1716). The small cell lung cancer cell line COR-L88 was purchased from Sigma-Aldrich (cat. 92031917-1VL, RRID:CVCL_1141). The non-small cell lung cancer cell lines NCI-H226 (RRID:CVCL_1544) and NCI-H322M (RRID:CVCL_1557) were established at the NCI and grown from internal seed stocks. Pooled donor human umbilical vein endothelial cells (HUVEC, Lonza, cat. CC-2519) and human mesenchymal stem cells (hMSC, Lonza, cat. PT-2501) were purchased from Lonza (Walkersville, MD).
Cell Culture. All cells were maintained in an incubator at 37 degrees C and 5% CO2 with 95% humidity. […]

Cc1sc2c(c1C)C(c1ccc(Cl)cc1)=NC(CC(=O)Nc1ccc(O)cc1)c1nnc(C)n1-2 (stereo not given) + COc1cc2c(cc1O)CCNC21CSC2c3c(OC(C)=O)c(C)c4c(c3C(COC1=O)N1C(O)C3Cc5cc(C)c(OC)c(O)c5C(C21)N3C)OCO4
139 nM: IC50 (second compound 30 pM)
active: viability, T/C (second compound 30 pM, first compound 0.949 µM) 3.27% | viability, T/C (second compound 30 pM, first compound 3 µM) 2.11% | viability, T/C (second compound 94.9 pM, first compound 0.949 µM) 3.48% | viability, T/C (second compound 94.9 pM, first compound 3 µM) 1.41% | viability, T/C (second compound 0.0003 µM, first compound 0.00949 µM) 8.51% | viability, T/C (second compound 0.0003 µM, first compound 0.03 µM) 6.28% | viability, T/C (second compound 0.0003 µM, first compound 0.0949 µM) 6.64% | viability, T/C (second compound 0.0003 µM, first compound 0.3 µM) 4.03% | viability, T/C (second compound 0.0003 µM, first compound 0.949 µM) 1.94% | viability, T/C (second compound 0.0003 µM, first compound 3 µM) 2.8% | viability, T/C (second compound 0.000949 µM, first compound 0.00949 µM) 6.63% | viability, T/C (second compound 0.000949 µM, first compound 0.03 µM) 6.95% | viability, T/C (second compound 0.000949 µM, first compound 0.0949 µM) 4.47% | viability, T/C (second compound 0.000949 µM, first compound 0.3 µM) 1.87% | viability, T/C (second compound 0.000949 µM, first compound 0.949 µM) 1.26% | viability, T/C (second compound 0.000949 µM, first compound 3 µM) 0.53% | viability, T/C (second compound 0.003 µM, first compound 0.00949 µM) 0.27% | viability, T/C (second compound 0.003 µM, first compound 0.03 µM) 0.37% | viability, T/C (second compound 0.003 µM, first compound 0.0949 µM) 0.18% | viability, T/C (second compound 0.003 µM, first compound 0.3 µM) 0.13% | viability, T/C (second compound 0.003 µM, first compound 0.949 µM) 0.18% | viability, T/C (second compound 0.003 µM, first compound 3 µM) 0.31%
inactive: viability, T/C (second compound 30 pM, first compound 0.00949 µM) 77.2% | viability, T/C (second compound 30 pM, first compound 0.03 µM) 90.2% | viability, T/C (second compound 30 pM, first compound 0.0949 µM) 69.2% | viability, T/C (second compound 30 pM, first compound 0.3 µM) 11.1% | viability, T/C (second compound 94.9 pM, first compound 0.00949 µM) 34.7% | viability, T/C (second compound 94.9 pM, first compound 0.03 µM) 33.6% | viability, T/C (second compound 94.9 pM, first compound 0.0949 µM) 35% | viability, T/C (second compound 94.9 pM, first compound 0.3 µM) 7.23%
< 9.49 nM: IC50 (second compound 94.9 pM) | IC50 (second compound 0.0003 µM) | IC50 (second compound 0.000949 µM) | IC50 (second compound 0.003 µM)
